Key:
Format in all cases: functional
Tobacco mosaic virus [1] = assay: In vivo antiviral activity against Tobacco mosaic virus (TMV) inoculated right side of Nicotiana. tabacum L. leaves assessed as protection effect at 500 ug/mL preincubated 12 hr before viral challenge measured after 3 to 4 days
Tobacco mosaic virus [2] = assay: Antiviral activity against Tobacco mosaic virus (TMV) inoculated in 5-6 growth stage leaf assessed as inhibition effect at 500 ug/mL at 25 degC after 72 hr by half-leaf method
Tobacco mosaic virus [3] = assay: In vivo antiviral activity against Tobacco mosaic virus (TMV) inoculated left side of Nicotiana. tabacum L. leaves assessed as inactivation effect at 100 ug/mL co-incubated with virus measured after 3 to 4 days
Tobacco mosaic virus [4] = assay: In vivo antiviral activity against Tobacco mosaic virus (TMV) inoculated left side of Nicotiana. tabacum L. leaves assessed as inactivation effect at 500 ug/mL co-incubated with virus measured after 3 to 4 days
Tobacco mosaic virus [5] = assay: In vivo antiviral activity against Tobacco mosaic virus (TMV) pre-inoculated Nicotiana. tabacum L. leaves assessed as curative effect at 500 ug/mL measured after 3 to 4 days
Tobacco mosaic virus [6] = assay: In vivo antiviral activity against Tobacco mosaic virus (TMV) pre-inoculated Nicotiana. tabacum L. leaves assessed as curative effect at 100 ug/mL measured after 3 to 4 days
Tobacco mosaic virus [7] = assay: Antiviral activity against Tobacco mosaic virus (TMV) inoculated in 5-6 growth stage leaf assessed as inhibition effect at 100 ug/mL at 25 degC after 72 hr by half-leaf method
Tobacco mosaic virus [8] = assay: In vivo antiviral activity against Tobacco mosaic virus (TMV) inoculated right side of Nicotiana. tabacum L. leaves assessed as protection effect at 100 ug/mL preincubated 12 hr before viral challenge measured after 3 to 4 days
Tobacco mosaic virus [9] = assay: Antiviral activity against Tobacco mosaic virus (TMV) assessed as inhibition effect at 500 ug/mL
Tobacco mosaic virus [10] = assay: Antiviral activity against Tobacco mosaic virus (TMV) assessed as inhibition effect at 1 ug/mL

Compound	inhibition in vivo at 500 µg/mL (Tobacco mosaic virus [1])	inhibition at 500 µg/mL (Tobacco mosaic virus [2])	inhibition in vivo at 100 µg/mL (Tobacco mosaic virus [3])	inhibition in vivo at 500 µg/mL (Tobacco mosaic virus [4])	inhibition in vivo at 500 µg/mL (Tobacco mosaic virus [5])	inhibition in vivo at 100 µg/mL (Tobacco mosaic virus [6])	inhibition at 100 µg/mL (Tobacco mosaic virus [7])	inhibition in vivo at 100 µg/mL (Tobacco mosaic virus [8])	inhibition at 500 µg/mL (Tobacco mosaic virus [9])	inhibition at 1 µg/mL (Tobacco mosaic virus [10])
COc1ccc2c3c(c4cc(OC)c(OC)cc4c2c1)[C@H](NC(C)=O)[C@@H]1CCCN1C3	72.7%	75.1%	40.4%	72.2%	69.6%	50.8%	55%	55.3%	–	–
COc1cc2c3c(c4cc(OC)c(OC)cc4c2cc1OC)[C@H](N)[C@@H]1CCCN1C3	18.4%	12.9%	11.2%	17.6%	15.5%	0%	0%	7.3%	–	–
COc1ccc2c3c(c4cc(OC)c(OC)cc4c2c1)[C@H](N)[C@@H]1CCCN1C3	44.4%	48.2%	32.1%	41.9%	42.3%	29.6%	32.5%	30.1%	–	–
COc1ccc2c3c(c4cc(OC)c(OC)cc4c2c1)CN1CCC[C@H]1[C@H]3N	71.6%	72.4%	32.8%	70.3%	68%	48.2%	45%	38.9%	–	–
COc1cc2c3c(c4cc(OC)c(OC)cc4c2cc1OC)[C@H](NC(C)=O)[C@@H]1CCCN1C3	41.5%	34.7%	31.1%	46.4%	37.4%	25.3%	21.1%	29.3%	–	–
COc1ccc2c3c(c4cc(OC)c(OC)cc4c2c1)CN1CCC[C@H]1[C@H]3NC(C)=O	28.6%	23.5%	16.7%	38.1%	25.2%	0%	7.4%	15.3%	–	–
COc1cc2c3c(c4cc(OC)c(OC)cc4c2cc1OC)[C@H](NC(=O)C(C)(C)C)[C@@H]1CCCN1C3	38.9%	42.4%	16.9%	28.5%	38.5%	26.3%	23.1%	22%	–	–
COc1ccc2c3c(c4cc(OC)c(OC)cc4c2c1)[C@H](NC(=O)C(C)(C)C)[C@@H]1CCCN1C3	52.6%	48.3%	23.6%	37.2%	45.6%	31.4%	28.7%	24.7%	–	–
COc1ccc2c3c(c4cc(OC)c(OC)cc4c2c1)CN1CCC[C@H]1[C@H]3NC(=O)C(C)(C)C	43.1%	49.1%	15.4%	31.9%	45%	27.7%	30%	23.6%	–	–
O=C1NCNC(=O)N1	–	–	–	–	–	–	–	–	50%	–
CC(=O)N1CN(C(C)=O)C(=O)NC1=O	–	–	–	–	–	–	–	–	50%	–
CCCCN[C@H]1c2c(c3cc(OC)c(OC)cc3c3cc(OC)ccc23)CN2C(=O)CC[C@@H]12	50.3%	52.5%	25.6%	47.2%	47.5%	20.3%	30%	26.2%	–	–
CCCCN[C@@H]1c2c(c3cc(OC)c(OC)cc3c3cc(OC)ccc23)CN2C(=O)CC[C@H]12	48.2%	38.2%	25.4%	49.4%	41.7%	23.6%	17.5%	20.5%	–	–
CCCCN[C@@H]1c2c(c3cc(OC)c(OC)cc3c3cc(OC)ccc23)CN2C(=O)CC[C@@H]12	54.8%	45.7%	27.6%	50%	52.5%	24.3%	20%	28.6%	–	–
CCCCN[C@H]1c2c(c3cc(OC)c(OC)cc3c3cc(OC)ccc23)CN2C(=O)CC[C@H]12	46.8%	44.1%	19.8%	43.3%	36.2%	14.3%	20.4%	17.6%	–	–
CCCCN[C@H]1c2c(c3cc(OC)c(OC)cc3c3cc(OC)ccc23)CN2CCC[C@@H]12	65.5%	62.3%	30%	58.9%	60.2%	25.9%	28.4%	34.9%	–	–
CCCCN[C@@H]1c2c(c3cc(OC)c(OC)cc3c3cc(OC)ccc23)CN2CCC[C@H]12	57.6%	47.6%	23.7%	53.5%	58.2%	20.5%	24.3%	27.4%	–	–
CCCCN[C@@H]1c2c(c3cc(OC)c(OC)cc3c3cc(OC)ccc23)CN2CCC[C@@H]12	69.5%	72.3%	32.6%	64.2%	66.6%	30.4%	41.2%	36.8%	–	–
CCCCN[C@H]1c2c(c3cc(OC)c(OC)cc3c3cc(OC)ccc23)CN2CCC[C@H]12	54.2%	51.4%	15.2%	42.3%	50.2%	16.7%	19.9%	20%	–	–
COc1cc2c3c(c4ccc(O)cc4c2cc1OC)CN1CCC[C@@H]1C3	–	–	–	–	–	–	–	–	–	70%
COc1cc2c3c(c4cc(OC)c(OC)cc4c2cc1OC)CN1CCCC1C3 (racemic) [(+/-)-TYLOPHORINE]	56.6%	51.8%	33.3%	46.5%	52%	30.7%	27.6%	31.5%	–	–
COc1ccc2c3c(c4cc(OC)c(OC)cc4c2c1)C[C@H]1CCCN1C3 [(-)-ANTOFINE]	–	–	–	–	–	–	–	–	–	63%
CNCC(=O)N[C@@H](CO)C(=O)N[C@H]1[C@H](O)[C@@H](O)[C@H](n2ccc(N)nc2=O)O[C@@H]1C(N)=O [NINGNANMYCIN]	66.6%	70.2%	37.7%	68.5%	56%	18.9%	23.9%	25.2%	–	–
NC(=O)c1ncn([C@@H]2O[C@H](CO)[C@@H](O)[C@H]2O)n1 [RIBAVIRIN]	38.9%	41%	9.8%	33.8%	36.7%	8.2%	19.6%	7.5%	–	–
